Measurements from PubChem BioAssay AID2060495 (Molecular Pharmacology Branch, DTP, NCI, 2025).
pIC50: −log10 of the molar value.

Test system: 521955-158-R2-J5-PDC complex spheroid viability
Experiment: Anticancer human tumor 521955-158-R2-J5-PDC patient-derived pancreatic carcinoma cell line growth inhibition [GQUAD]
Conditions: for pIC50: curve of first compound; for viability, T/C: stronger effect = lower value
Outline: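 Tumor cells were grown as complex spheroids with HUVEC endothelial cells and mesenchymal stem cells as stroma. G-quadruplex stabilizers were combined with targeted agents over half-log dilutions from near the clinical Cmax, or from 10 microM.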

[1] = second compound 0.0316 µM, first compound 0.0316 µM
[2] = second compound 0.0316 µM, first compound 0.1 µM
[3] = second compound 0.0316 µM, first compound 0.316 µM
[4] = second compound 0.0316 µM, first compound 1 µM
[5] = second compound 0.0316 µM, first compound 3.16 µM
[6] = second compound 0.0316 µM, first compound 10 µM
[7] = second compound 0.1 µM, first compound 0.0316 µM
[8] = second compound 0.1 µM, first compound 0.1 µM
[9] = second compound 0.1 µM, first compound 0.316 µM
[10] = second compound 0.1 µM, first compound 1 µM
[11] = second compound 0.1 µM, first compound 3.16 µM
[12] = second compound 0.1 µM, first compound 10 µM
[13] = second compound 0.316 µM, first compound 0.0316 µM
[14] = second compound 0.316 µM, first compound 0.1 µM
[15] = second compound 0.316 µM, first compound 0.316 µM
[16] = second compound 0.316 µM, first compound 1 µM
[17] = second compound 0.316 µM, first compound 3.16 µM
[18] = second compound 0.316 µM, first compound 10 µM
[19] = second compound 1 µM, first compound 0.0316 µM
[20] = second compound 1 µM, first compound 0.1 µM
[21] = second compound 1 µM, first compound 0.316 µM
[22] = second compound 1 µM, first compound 1 µM
[23] = second compound 1 µM, first compound 3.16 µM
[24] = second compound 1 µM, first compound 10 µM
[25] = second compound 3.16 µM, first compound 0.0316 µM
[26] = second compound 3.16 µM, first compound 0.1 µM
[27] = second compound 3.16 µM, first compound 0.316 µM
[28] = second compound 3.16 µM, first compound 1 µM
[29] = second compound 3.16 µM, first compound 3.16 µM
[30] = second compound 3.16 µM, first compound 10 µM
[31] = second compound 10 µM, first compound 0.0316 µM
[32] = second compound 10 µM, first compound 0.1 µM
[33] = second compound 10 µM, first compound 0.316 µM
[34] = second compound 10 µM, first compound 1 µM
[35] = second compound 10 µM, first compound 3.16 µM
[36] = second compound 10 µM, first compound 10 µM
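Note: spheroids exposed to agents for one week before reading.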
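Throughout, for viability, T/C: 100% = DMSO vehicle control viability.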

## COc1ccc([C@@H](O)c2cc(-c3ncnc4cc(N5CCOCC5)ccc34)c(F)cc2Cl)nn1 + CN(C)c1ccc(Nc2c3ccc(NC(=O)CCN4CCCC4)cc3nc3cc(NC(=O)CCN4CCCC4)ccc23)cc1
Second compound 0.0316 µM
  pIC50: 5.14
Second compound 0.1 µM
  pIC50: 5.25
Second compound 0.316 µM
  pIC50: 5.19
Second compound 1 µM
  pIC50: 5.26
Second compound 3.16 µM
  pIC50: 5.60
Second compound 10 µM
  pIC50: 5.70
[1]
  viability, T/C: 91.8%
[2]
  viability, T/C: 107%
[3]
  viability, T/C: 91.8%
[4]
  viability, T/C: 78.9%
[5]
  viability, T/C: 68.3%
[6]
  viability, T/C: 43.3%
[7]
  viability, T/C: 94.2%
[8]
  viability, T/C: 96.8%
[9]
  viability, T/C: 92.3%
[10]
  viability, T/C: 83.9%
[11]
  viability, T/C: 60%
[12]
  viability, T/C: 39.9%
[13]
  viability, T/C: 88.9%
[14]
  viability, T/C: 105%
[15]
  viability, T/C: 106%
[16]
  viability, T/C: 77.8%
[17]
  viability, T/C: 66.5%
[18]
  viability, T/C: 41%
[19]
  viability, T/C: 87.4%
[20]
  viability, T/C: 101%
[21]
  viability, T/C: 83%
[22]
  viability, T/C: 72.4%
[23]
  viability, T/C: 59.2%
[24]
  viability, T/C: 41.5%
[25]
  viability, T/C: 66.4%
[26]
  viability, T/C: 83.1%
[27]
  viability, T/C: 74.9%
[28]
  viability, T/C: 73.7%
[29]
  viability, T/C: 44%
[30]
  viability, T/C: 28.8%
[31]
  viability, T/C: 59.8%
[32]
  viability, T/C: 55.6%
[33]
  viability, T/C: 71.3%
[34]
  viability, T/C: 54.9%
[35]
  viability, T/C: 45.1%
[36]
  viability, T/C: 16.7%

## COc1cccc2c1C(=O)c1c(O)c3c(c(O)c1C2=O)CC(O)(C(=O)CO)CC3OC1CC(N)C(O)C(C)O1 (centres undefined) + Cc1cnc(CNC(=O)c2c(=O)c3ccc(N4CCCN(C)CC4)nc3n3c2sc2ccccc23)cn1
Second compound 0.0316 µM
  pIC50: 6.95
Second compound 0.1 µM
  pIC50: 6.90
Second compound 0.316 µM
  pIC50: > 7.50
Second compound 1 µM
  pIC50: > 7.50
Second compound 3.16 µM
  pIC50: > 7.50
Second compound 10 µM
  pIC50: > 7.50
[1]
  viability, T/C: 78.2%
[2]
  viability, T/C: 48%
[3]
  viability, T/C: 38.4%
[4]
  viability, T/C: 10.9%
[5]
  viability, T/C: 4.19%
[6]
  viability, T/C: 0.5%
[7]
  viability, T/C: 53.3%
[8]
  viability, T/C: 59.6%
[9]
  viability, T/C: 26.3%
[10]
  viability, T/C: 10.6%
[11]
  viability, T/C: 1.38%
[12]
  viability, T/C: 0.74%
[13]
  viability, T/C: 36.3%
[14]
  viability, T/C: 37.1%
[15]
  viability, T/C: 20.9%
[16]
  viability, T/C: 8.92%
[17]
  viability, T/C: 0.18%
[18]
  viability, T/C: 0.39%
[19]
  viability, T/C: 20.7%
[20]
  viability, T/C: 20.1%
[21]
  viability, T/C: 14.5%
[22]
  viability, T/C: 8.17%
[23]
  viability, T/C: 0.08%
[24]
  viability, T/C: 0.07%
[25]
  viability, T/C: 18.5%
[26]
  viability, T/C: 18.4%
[27]
  viability, T/C: 15%
[28]
  viability, T/C: 5.89%
[29]
  viability, T/C: 0.12%
[30]
  viability, T/C: 0.13%
[31]
  viability, T/C: 18.4%
[32]
  viability, T/C: 14.4%
[33]
  viability, T/C: 16.2%
[34]
  viability, T/C: 4.97%
[35]
  viability, T/C: 0.21%
[36]
  viability, T/C: 0.19%
